Data taken from the NIST ThermoML archive (doi:10.1016/j.jct.2007.05.017).
Numbers after ± are expanded uncertainties.

Assay: xn = mol fraction of the nth substance listed
Conditions: Liquid, Vibrating tube method

COC(=O)OC [dimethyl carbonate] + O=C=O
mass density [kg/m3]
Conditions | x2 = 0.2765 | x2 = 0.4101 | x2 = 0.4429 | x2 = 0.5128 | x2 = 0.5573 | x2 = 0.6179 | x2 = 0.6791 | x2 = 0.6922 | x2 = 0.7885 | x2 = 0.7974
273 K | – | 475.4 ± 40 | – | 448.2 ± 40 | – | 373.6 ± 40 | – | 331.4 ± 40 | 260.1 ± 40 | –
283 K | 659.5 ± 40 | – | 569.3 ± 40 | – | 465.6 ± 40 | – | 358.1 ± 40 | – | – | 311.1 ± 40
